Experimental data: the NIST ThermoML archive (doi:10.1016/j.fluid.2007.11.005)

Details: Liquid, Bellows volumetry

CCCCn1cc[n+](C)c1.F[P-](F)(F)(F)(F)F [1-butyl-3-methylimidazolium hexafluorophosphate]
mass density [kg/m3]
Details	392.8 K	412.8 K	432.6 K	452.5 K	472.3 K
10000 kPa	–	1284	1269	1254	1240
20000 kPa	–	1290	1276	1262	1248
30000 kPa	–	1297	1283	1269	1256
40000 kPa	–	1303	1290	1276	1263
50000 kPa	–	1309	1296	1283	1270
60000 kPa	–	1315	1302	1289	1276
70000 kPa	–	1321	1308	1295	1282
80000 kPa	–	1326	1313	1301	1289
90000 kPa	–	1331	1319	1306	1294
100000 kPa	1349	1336	1324	1312	1300
110000 kPa	1354	1341	1329	1317	1305
120000 kPa	1359	1346	1334	1322	1311
130000 kPa	1363	1351	1339	1327	1316
140000 kPa	1367	1355	1343	1332	1320
150000 kPa	1372	1360	1348	1336	1325
160000 kPa	1376	1364	1352	1341	1330
170000 kPa	1380	1368	1357	1345	1334
180000 kPa	1384	1372	1361	1350	1339
190000 kPa	1388	1376	1365	1354	1343
200000 kPa	1392	1380	1369	1358	1347
